According to US9481709B2, “Boropeptide inhibitors of enteropeptidase and their uses in treatment of obesity, overweight and/or diseases associated with an abnormal fat metabolism” (OBE THERAPY BIOTECHNOLOGY, priority 2007, dated 2016):

Assay: Effect on absorption of 14C-proteins after oral administration
Type: in vivo
Details: for Cmax of 14C-protein radioactivity in plasma: control 0.9%±0.27; for AUC mean of 14C-protein radioactivity in plasma: control 2.214±0.1875; for plateau concentration of 14C-protein radioactivity in plasma: 1 h to 4 h post-administration, control 0.5%
Procedure: 3. Effect of OBE2001 on Protein Absorption
This third in vivo experiment was designed to obtain information on the absorption of ^14C-proteins in absence or in presence of OBE2001 at two different doses (5 mg/Kg or 50 mg/Kg) after an oral administration to male Swiss mice.
15 male Swiss (CD-1) mice, 5 weeks-old and having a mean body weight of 0.021±0.002 kg were divided in 3 groups: • Control Group (G1; solvant) containing 5 mice, received water at 5 mL/Kg at t-5 min and ^14C-proteins at 10 mL/Kg at T=0 min; • Group 2 (G2) containing 5 mice (OBE 5 mg/Kg), received OBE2001 at 5 mg/Kg at t-5 min and ^14C-proteins at 10 mL/Kg at T=0 min; • Group 3 (G3) containing […] (OBE 50 mg/Kg), received OBE2001 at 50 mg/Kg at t-5 min and ^14C-proteins at 10 mL/Kg at T=0 min.
A preparation containing 5 ml of Clinoleic 20 (Baxter Ref DDB9500) with 1 g of glucose (Sigma; ref:G8270) and 1 g of casein (Sigma; ref: C3400) was prepared. Water was added until the solution reached 10 ml. After concentration of the radioactive solution containing the ^14C proteins (GE Healthcare; ref: CFA626) (×10), 200 μl of this radioactive solution was added to 2.8 ml of the preparation, in order to reach a concentration of ca 3.3 μCi/ml. The animals were starved before administration of this radioactive preparation. The radioactive preparation was orally administered by intragastric gavage with a single dosing (ca 33.3 μCi/kg) in a volume of ca 10 ml/kg of body weight.
OBE2001 was provided in a mixture of two salts (HCl and TFA) with a 90% purity. OBE2001 was orally administered by intragastric gavage with a single dosing of 5 mg/Kg for G2 and 50 mg/Kg for G3 in a volume of ca 5 mL/kg body-weight.
Plasma aliquots were removed and placed into 6 ml pre-weighed plastic vials, at t+15, t+30, t+60, t+120 and t+240 min. About 4 ml Pico-fluor 40 was added and after shaking, the total radioactivity contained within the different samples was determined by liquid scintillation using a Packard 1900 CA spectrometer equipped with an external standard system (spectral analysis). A quenching curve for calibration purposes was set up using a ^14C quenched set supplied by Packard Instruments.
Liquid scintillation (LS) Counting was carried out with 2 sigma=2%, and for a maximum duration of 5 minutes (according to the method created in the 1900CA® software). Dpm (disintegration per minute) values of less than twice the background level of blank biological medium were reported as BLQ (Below the Limit of Quantitation).

## CC(=O)N[C@@H](C)C(=O)N[C@@H](Cc1ccccc1)C(=O)N[C@@H](CCCNC(=N)N)B1OC2C[C@@H]3C[C@@H](C3(C)C)[C@]2(C)O1 (some centres unmarked) [OBE2001]
5 mg/kg oral at t-5 min
  Cmax of 14C-protein radioactivity in plasma: 0.58%±0.54 % of administered dose/g
5 mg/kg
  AUC mean of 14C-protein radioactivity in plasma: 1.841±0.6402 % dose.h.g-1
  plateau concentration of 14C-protein radioactivity in plasma: 0.4 % administered dose/g
50 mg/kg oral at t-5 min
  Cmax of 14C-protein radioactivity in plasma: 0.54%±0.24 % of administered dose/g
50 mg/kg
  AUC mean of 14C-protein radioactivity in plasma: 1.718±0.4366 % dose.h.g-1
  plateau concentration of 14C-protein radioactivity in plasma: 0.4 % administered dose/g
First 30 minutes after protein administration, maintained at least 4 hours
  protein absorption compared to control mice: greatly decreased
Single oral dose 5 or 50 mg/kg, male Swiss mice
  morbidity or mortality: no sign of morbidity or mortality occurred
